Data published in patent US8969516B2, “Method of hydrolysis of peptide bond” (priority 2006, dated 2015).

Test: MALDI-TOF screening of Ni^2+ dependent hydrolysis in a combinatorial peptide library
Assay type: physicochemical
Conditions: Ni^2+ 2 mM, pH 8.2, 10 mM Tris, score=24/tm
Outline: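 Sublibraries of Ac-Gly-Ala-Ser/Thr-X-His-Z-Lys-Phe-Leu-NH2, randomized at Z and fixed at X, were hydrolyzed at 1 mM total peptide with 2 mM Ni2+ in 10 mM Tris, pH 8.2, at 37 °C or 45 °C. Cleavage was scored visually in MALDI-TOF spectra at 2, 4, 6 and 8 h.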

[1] = CH3CO-Gly-Ala-Thr-X-His-Z-Lys-Phe-Leu-NH2 library, 37° C.
[2] = CH3CO-Gly-Ala-Thr-X-His-Z-Lys-Phe-Leu-NH2 library, 45° C.
[3] = CH3CO-Gly-Ala-Ser-X-His-Z-Lys-Phe-Leu-NH2 library, 37° C.
[4] = CH3CO-Gly-Ala-Ser-X-His-Z-Lys-Phe-Leu-NH2 library, 45° C.

Substance | hydrolysis score from MALDI-TOF screening [1] | hydrolysis score from MALDI-TOF screening [2] | hydrolysis score from MALDI-TOF screening [3] | hydrolysis score from MALDI-TOF screening [4]
Ac-GATTHPKFL-NH2 [TTHP] | 0 (a score of 0 if no trace of the product of hydrolysis was seen after 8 hours of incubation) | 0 (a score of 0 if no trace of the product of hydrolysis was seen after 8 hours of incubation) |  | 
Ac-GATGHWKFL-NH2 [TGHW] | 0 (a score of 0 if no trace of the product of hydrolysis was seen after 8 hours of incubation) | 0 (a score of 0 if no trace of the product of hydrolysis was seen after 8 hours of incubation) |  | 
Ac-GATYHQKFL-NH2 [TYHQ] | 0 (a score of 0 if no trace of the product of hydrolysis was seen after 8 hours of incubation) | 0 (a score of 0 if no trace of the product of hydrolysis was seen after 8 hours of incubation) |  | 
Ac-GATGHGKFL-NH2 [TGHG] | 0 (a score of 0 if no trace of the product of hydrolysis was seen after 8 hours of incubation) | 0 (a score of 0 if no trace of the product of hydrolysis was seen after 8 hours of incubation) |  | 
Ac-GATQHPKFL-NH2 [TQHP] | 0 (a score of 0 if no trace of the product of hydrolysis was seen after 8 hours of incubation) | 0 (a score of 0 if no trace of the product of hydrolysis was seen after 8 hours of incubation) |  | 
Ac-GASNHKKFL-NH2 [SNHK] |  |  | 4 (a score of 4 for detection at 6 hours) | 4 (a score of 4 for detection at 6 hours)
Ac-GASFHIKFL-NH2 [SFHI] |  |  | 4 (a score of 4 for detection at 6 hours) | 6 (a score of 6 for detection at 4 hours)
Ac-GASWHKKFL-NH2 [SWHK] |  |  | 4 (a score of 4 for detection at 6 hours) | 12 (a score of 12, if it was seen to be partially hydrolysed at 2 hours)
Ac-GATYHGKFL-NH2 [TYHG] | 0 (a score of 0 if no trace of the product of hydrolysis was seen after 8 hours of incubation) | 0 (a score of 0 if no trace of the product of hydrolysis was seen after 8 hours of incubation) |  | 
Ac-GATPHTKFL-NH2 [TPHT] |  | 0 (a score of 0 if no trace of the product of hydrolysis was seen after 8 hours of incubation) |  | 
Ac-GASHHEKFL-NH2 [SHHE] |  |  | 0 (a score of 0 if no trace of the product of hydrolysis was seen after 8 hours of incubation) | 0 (a score of 0 if no trace of the product of hydrolysis was seen after 8 hours of incubation)
Ac-GATNHQKFL-NH2 [TNHQ] | 0 (a score of 0 if no trace of the product of hydrolysis was seen after 8 hours of incubation) | 0 (a score of 0 if no trace of the product of hydrolysis was seen after 8 hours of incubation) |  | 
Ac-GATMHIKFL-NH2 [TMHI] | 0 (a score of 0 if no trace of the product of hydrolysis was seen after 8 hours of incubation) | 0 (a score of 0 if no trace of the product of hydrolysis was seen after 8 hours of incubation) |  | 
Ac-GATIHRKFL-NH2 [TIHR] | 0 (a score of 0 if no trace of the product of hydrolysis was seen after 8 hours of incubation) | 3 (a score of 3 for detection at 8 hours) |  | 
Ac-GASYHHKFL-NH2 [SYHH] |  |  | 4 (a score of 4 for detection at 6 hours) | 4 (a score of 4 for detection at 6 hours)
Ac-GASKHHKFL-NH2 [SKHH] |  |  | 4 (a score of 4 for detection at 6 hours) | 3 (a score of 3 for detection at 8 hours)
Ac-GASIHFKFL-NH2 [SIHF] |  |  | 0 (a score of 0 if no trace of the product of hydrolysis was seen after 8 hours of incubation) | 0 (a score of 0 if no trace of the product of hydrolysis was seen after 8 hours of incubation)
